Laboratory results published in patent US12391701B2, “Chromene-based compounds, methods and uses thereof” (University of Minho, priority 2019, dated 2025).

Tests used:
[1] = tested on: renal carcinoma cell line A498; assay: Cell viability (sulforhodamine B), A498; type: cell-based; settings: Homo sapiens, Table 5
Procedure: In an embodiment, the antiproliferative activity of the compounds was further determined against renal carcinoma cell lines and non-neoplastic kidney cell line.
In an embodiment, three human breast cancer cell lines Hs578T, MDA-MB-468 and MCF-7, and a normal breast cell line MCF-10A, were obtained from ATCC (American Type Culture Collection). The cancer cell lines were cultured in Dulbecco's modified Eagle medium, 4.5 g/l glucose (DMEM, Gibco) supplemented with 10% heating inactivated Fetal Bovine Serum (FBS, Gibco) and 1% antibiotic solution (Penicillin-Streptomycin, Gibco). The normal cell line was cultured in Dulbecco's Modified Eagle Medium: Nutrient Mixture F-12 (DMEM/F12, Gibco) supplemented with 5% heating inactivated FBS (Gibco), 1% antibiotic solution (Penicillin-Streptomycin, Gibco), 1% steroid hormone (Hydrocortisone, Sigma-Aldrich), 0.1% peptide hormone (Insulin, Sigma-Aldrich) and 0.01% protein complex (Cholera Toxin, Gibco). Two distinct human acute myeloid leukemia (AML) cell lines, HL-60 (FAB M2) and KG-1 (erythroleukemia-FAB M6), and one human lymphoblastic leukemia (ALL) cell line, Jurkat (T cell type), were also used. These three cell lines were obtained from German Collection of Microorganisms and Cell cultures (DMSZ®, Deutsche Sammlung von Mikroorganismen and Zellkulturen in German). Cells were cultured in RPMI 1640 medium (Biochrom®-Merck Millipore) supplemented with 10% heating inactivated FBS (Biochrom®-Merck Millipore) and 1% antibiotic/antimitotic mixture (Invitrogen®). Three human glioblastoma (GBM) cell line models, two established and commercially available cell lines (U87MG and GAMG, kind gift from Rui M. Reis) and one primary GBM culture (GLIB) were also used. GBM cells were cultures in DMEM (Biochrom-Merck Millipore), all supplemented with 10% FBS. The Renal cell carcinoma cell lines A498, 786-O, Caki-2 and HK2 were obtained from ATCC. The cancer cell line A498 was cultured in MEM medium (Biochrom®-Merck Millipore), 786-O was cultured in RPMI 1640 medium (Biochrom®-Merck Millipore), Caki-2 was cultured in Mc Coys medium (Biochrom®-Merck Millipore) and HK2 was cultured in RPMI 1640 medium (Biochrom®-Merck Millipore). All the media were supplemented with 10% heat inactivated FBS (Biochrom®-Merck Millipore) and 1% antibiotic/antimitotic mixture (Invitrogen®). All cells were grown in a humidified incubator at 37° C. and 5% CO2. For all assays, DMSO (Dimethyl Sulfoxide, Sigma-Aldrich) controls were used.
In an embodiment, cell viability assays were performed. MCF-7, Hs578T and MCF-10A cells were plated in triplicate in 96-multiwell culture plates, at 3000 cells per mL, or 5000 cells per mL for MDA-MB-468 (100 μL/well). The cells were then allowed to adhere in complete medium, over a period of 18-20 hours. Cells were subsequently treated with 7 different concentrations (from 0.1 to 40 μM or 5 to 60 μM) of compounds or control in fresh medium. HL-60, KG-1 and Jurkat cell lines were plated in 96-multiwell culture plates at 50.000 cells/100 μL per well and treated with different concentrations (from 0.001 to 2 μM) of the compounds described (or control). Cells were plated, in triplicate, at an initial density of 2000 cells/well for GAMG, 4000 cells/well for GL18 and 6000 cells/well for U87MG, in 96-well plates, and allowed to adhere for 18-20 hours. Cells were then treated with different concentrations of the compounds (0.005 to 100 μM) or with control. A498 and 786-O cells were plated at 2000 cells per mL, Caki-2 cells were plated at 3000 cells per mL and HK2 cells were plated at 2000 cells per mL in triplicate, in 96-multiwell culture plates (100 μL/well), and allowed to adhere over a period of 18-20 hours in complete medium. The cells were then treated with 7 different concentrations (from 0.1 to 40 μM or 5 to 60 μM) of compounds or control in fresh medium. […]

Caenorhabditis elegans = assay: C. elegans food clearance toxicity assay; type: in vivo; settings: several concentrations up to 150 μM (MC369 75 μM)
Procedure: In an embodiment, toxicity assessment of the compounds in vivo was performed using Caenorhabditis elegans (C. elegans) as a model. A food clearance-based assay was performed, in which the bacteria consumption over time is a proxy for worm development, health and fertility (FIG. 11). […] Worms were cultivated for 7 days in liquid media using heat-inactivated bacteria (E. coli OP50) as a food source and in the presence of several concentrations of compounds MC421, MC406, MC369 and MC408, MC409, MC407. The rate of food consumption between days 3-5 was used as an indication for worm development, health and also fertility, as after day 3 the worms' progeny will contribute to the faster decline in food abundance. An example is shown for hypothetical compound X. DMSO 1% and 5% are used as negative and positive controls for toxicity, respectively. For this experiment, the compounds were solubilized in DMSO 1% (vehicle). In an embodiment, Bristol strain N2 (provided by the CGC, funded by the NIH Office of Research Infrastructure Programs—P40 OD010440) was used to test each compound's toxicity based on a food clearance assay using C. elegans. The assay was performed on 96-well plates in liquid culture (Voisine et al. 2007; Teixeira-Castro et al. 2015). Each well, with a final volume of 60 μL, comprised the following: approximately 20 worms in egg stage, OP50 bacteria to a final OD of 0.6-0.8 (595 nm) and each compound at the appropriate concentration. The worms were grown with continuous shaking at 180 rpm/20° C. (Shel lab Si series incubator) for 7 days and the absorbance (OD595) was measured daily on a microplate reader (Tecan Infinite M200). The effect of the compounds on C. elegans physiology was monitored by the rate at which the E. coli food suspension was consumed (FIG. 14). Age-synchronized worm eggs were obtained by “egg prep” as follows: adult worms were treated with an alkaline hypochlorite solution (20% bleach, 25% 1M NaOH) for 6 minutes, thereafter centrifuged and washed in M9 buffer twice. The egg pellet was then re-suspended in S-medium to obtain the appropriate egg concentration before being transferred to 96-well plates. The OP50 bacteria was prepared by inactivating an overnight culture (37° C., 180 rpm, Luria Broth media) with 4 freeze-thaw cycles. Before use, the OP50 was re-suspended in supplemented S-medium (cholesterol, streptomycin, penicillin and nystatin). The compounds were prepared in 100% DMSO (Sigma) and diluted up to a test concentration of 1% DMSO to prevent solvent toxicity. For each compound, several concentrations (150-10 μM) were tested, with the exception of MC369 (75-10 μM) due to solubility issues. For each compound, several concentrations were used and the corresponding OD595 consumption rate (slope) for days 3-5 was calculated. The compounds were tested in worms grown in 96 well plates (PlateLayout.xls, Supporting Information), in two independent experiments. For the statistical analysis, the data from both experiments were pooled together and IBM SPSS was used to apply an ANOVA (Brown-Forsythe robust test of equality of means) followed by the Games-Howell post hoc test to compare the different concentrations used for each compound and 5% DMSO (wt/v) to the control (1% DMSO(wt/v)).

## COc1cccc2c1Oc1nc(-c3ccc(F)cc3)[nH]c1C2C1c2cccc(OC)c2Oc2nc(-c3ccc(F)cc3)[nH]c21 (centres unmarked) [MC406, 2,2′-bis(4-fluorophenyl)-5,5′-dimethoxy-1,1,9,9′-tetrahydro-9,9′-bichromeno[2,3-]imidazoles]
[1]
  IC50: 1160 nM
Caenorhabditis elegans
  rate of food consumption between days 3-5 vs 1% DMSO: No statistical differences

## COc1cccc2c1Oc1nc(-c3ccccc3)[nH]c1C2 [MC350, 5-methoxy-2-phenyl-3,9-dihydrochromeno[2,3-d]imidazoles]
[1]
  IC50: 830 nM

## COc1cccc2c1Oc1nc(-c3ccccc3F)[nH]c1C2C1c2cccc(OC)c2Oc2nc(-c3ccccc3F)[nH]c21 (centres unmarked) [MC369, 2,2′-bis(2-fluorophenyl)-5,5′-dimethoxy-1,1,9,9′-tetrahydro-9,9′-bichromeno[2,3-]imidazoles]
Caenorhabditis elegans
  rate of food consumption between days 3-5 vs 1% DMSO: No statistical differences

## COc1cccc2c1Oc1nc(-c3ccccc3F)[nH]c1C2 [MC407, 2-(2-fluorophenyl)-5-methoxy-3,9-dihydrochromeno[2,3-d]imidazoles]
[1]
  IC50: 1360 nM
Caenorhabditis elegans
  rate of food consumption between days 3-5 vs 1% DMSO: No statistical differences

## COc1cccc2c1Oc1nc(-c3ccc(Br)cc3)[nH]c1C2C1c2cccc(OC)c2Oc2nc(-c3ccc(Br)cc3)[nH]c21 (centres unmarked) [MC421, 2,2′-bis(4-bromophenyl)-5,5′-dimethoxy-1,1,9,9′-tetrahydro-9,9′-bichromeno[2,3-]imidazoles]
[1]
  IC50: 340 nM
Caenorhabditis elegans
  rate of food consumption between days 3-5 vs 1% DMSO: No statistical differences

## CCOc1ccc(-c2nc3c([nH]2)Cc2cccc(OC)c2O3)cc1 [MC415, 2-(4-ethoxyphenyl)-5-methoxy-3,9-dihydrochromeno[2,3-d]imidazoles]
[1]
  IC50: 120 nM

## COc1cccc2c1Oc1nc(-c3ccc(F)cc3)[nH]c1C2 [MC409, 2-(4-fluorophenyl)-5-methoxy-3,9-dihydrochromeno[2,3-d]imidazoles]
[1]
  IC50: 560 nM
Caenorhabditis elegans
  rate of food consumption between days 3-5 vs 1% DMSO: No statistical differences

## COc1cccc2c1Oc1nc(-c3ccc(O)cc3)[nH]c1C2 [MC413, 4-(5-methoxy-3,9-dihydrochromeno[2,3-d]imidazol-2-yl)phenol]
[1]
  IC50: 960 nM

## COc1cccc2c1Oc1nc(-c3ccc(Br)cc3)[nH]c1C2 [MC408, 2-(4-bromophenyl)-5-methoxy-3,9-dihydrochromeno[2,3-d]imidazoles]
[1]
  IC50: 140 nM
Caenorhabditis elegans
  rate of food consumption between days 3-5 vs 1% DMSO: No statistical differences
